Source: patent US20250092065A1, “2-(INDAZOL-5-YL)-6-(PIPERIDIN-4-YL)-1,7-NAPHTHYRIDINE DERIVATIVES AND RELATED COMPOUNDS AS MODULATORS FOR SPLICING NUCLEIC ACIDS AND FOR THE TREATMENT OF PROLIFERATIVE DISEASES” (REMIX THERAPEUTICS INC., priority 2022, published 2025)
Read-outs that look alike come from different tables or passages of the source.

Assays:
MYB mRNA = test: RT-qPCR splicing assay, MYB mRNA canonical (CJ) and alternative (AJ) junction; assay type: cell-based, human; settings: Homo sapiens
Method in brief: (§1)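 Canonical and alternative-exon junction isoforms were quantified by RT-qPCR in cell lysates, with ΔCt against a housekeeper (GAPDH/GUSB/PPIA), then ΔΔCt vs DMSO, converted to 2^(−ΔΔCt) and percent response. K562 or A673 cells were exposed for 24 h to 11 concentrations (3-fold, top final 10 uM).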

HTT mRNA = test: RT-qPCR splicing assay, HTT mRNA canonical (CJ) and alternative (AJ) junction; assay type: cell-based, human; settings: Homo sapiens
Method in brief: as §1

Target C = test: RT-qPCR canonical junction panel assay, Target C mRNA; assay type: cell-based; settings: Table 4, read-out: Target C IC50 (decrease in CJ mRNA levels)
Method: Compounds described herein were used to modulate RNA transcript abundance in cells. The expression of a target mRNA was measured by detecting the formation of an exon-exon junction in the canonical transcript (CJ). A compound mediated exon-inclusion event was detected by observing an increase in formation of a new junction with an alternative exon (AJ). Real-time qPCR assays were used to detect these splicing switches and interrogate the potency of various compounds towards different target genes. A high-throughput real time quantitative PCR (RT-qPCR) assay was developed to measure these two isoforms of the mRNA (CJ and AJ) for exemplary genes, such as HTT, SMN2, and MYB, together with a control housekeeping gene, GAPDH or GUSB or PPIA, used for normalization. Briefly, the A673 or K562 cell line was treated with various compounds described herein (e.g., compounds of Formula (I)). After treatment, the levels of the HTT, MYB, or SMN2 mRNA targets were determined from each sample of cell lysate by cDNA synthesis followed by qPCR.
The data analysis was performed by first determining the ΔCt vs the housekeeper gene. This ΔCt was then normalized against the DMSO control (ΔΔCt) and converted to RQ (relative quantification) using the 2^(−ΔΔCt) equation. The RQ were then converted to a percentage response by arbitrarily setting an assay window of 3.5 and 4.0 ΔCt for HTT-CJ and MYB-CJ respectively and an assay window of 9 and 3 ΔCt for HTT-AJ and MYB-AJ in 96 well format (50,000 K562 cells/well and 15,000 A673 cells per well) and an assay window of 3 and 4 ΔCt for HTT-CJ and MYB-CJ respectively and an assay window of 5 and 3 ΔCt for HTT-AJ and MYB-AJ respectively in 384 well format (8,000 K562 cells/well example). […] The percentage response was then fitted to the 4 parametric logistic equation to evaluate the concentration dependence of compound treatment. The increase in AJ mRNA is reported as AC50 (compound concentration having 50% response in AJ increase) while the decrease in CJ mRNA levels is reported as IC50 (compound concentration having […] in CJ decrease).
Additional studies were carried out for a larger panel of genes using the protocol provided above. The junction between flanking upstream and downstream exons was used to design canonical junction Qpcr assays. At least one of the forward primer, reverse primer or the CY5-labeled 5′ nuclease probe (with 3′ quencher such as ZEN/Iowa Black FQ) was designed to overlap with the exon junction to capture the CJ Mrna transcript. BLAST was used to confirm the specificity of the probeset and parameters suCH As melting temperature, GC content, amplicon size, and primer dimer formation are considered during their design. Data for the decrease in CJ Mrna levels for four exemplary genes (HTT, SMN2, MYB, and Target C) analyzed in this panel are reported as IC50 (compound concentration having […] in CJ decrease).

SMN2 mRNA = test: RT-qPCR splicing assay, SMN2 mRNA; assay type: cell-based, human; settings: Homo sapiens, canonical junction qPCR panel, Table 4; read-out: SMN2 IC50 (decrease in CJ mRNA levels)
Method in brief: as §1

K562 cells = test: Cell Titer Glo 2.0 cell viability (toxicity) assay, K562; settings: 500 cells/well, 72 hours
[1] = MYB alternative junction mRNA, RT-qPCR, read-out: MYB AJ (increase in AJ mRNA, AC50)
[2] = MYB canonical junction mRNA, RT-qPCR, read-out: MYB CJ (decrease in CJ mRNA levels, IC50)
[3] = canonical junction qPCR panel, Table 4, read-out: MYB IC50 (decrease in CJ mRNA levels)
[4] = HTT alternative junction mRNA, RT-qPCR, read-out: HTT AJ (increase in AJ mRNA, AC50)
[5] = HTT canonical junction mRNA, RT-qPCR, read-out: HTT CJ (decrease in CJ mRNA levels, IC50)
[6] = canonical junction qPCR panel, Table 4, read-out: HTT IC50 (decrease in CJ mRNA levels)
[7] = RT-qPCR, MYB alternative junction mRNA increase, read-out: MYB AJ (increase in alternative junction mRNA, AC50)
[8] = RT-qPCR, MYB canonical junction mRNA decrease, read-out: MYB CJ (decrease in canonical junction mRNA, IC50)
[9] = RT-qPCR, HTT alternative junction mRNA increase, read-out: HTT AJ (increase in alternative junction mRNA, AC50)
[10] = RT-qPCR, HTT canonical junction mRNA decrease, read-out: HTT CJ (decrease in canonical junction mRNA, IC50)

Structure (SMILES)	AC50 (MYB mRNA; [1]) [nM]	IC50 (MYB mRNA; [2]) [nM]	IC50 (MYB mRNA; [3]) [nM]	AC50 (HTT mRNA; [4]) [nM]	IC50 (HTT mRNA; [5]) [nM]	IC50 (HTT mRNA; [6]) [nM]	IC50 (Target C) [µM]	IC50 (SMN2 mRNA) [nM]	AC50 (MYB mRNA; [7]) [nM]	IC50 (MYB mRNA; [8]) [nM]	AC50 (HTT mRNA; [9]) [nM]	IC50 (HTT mRNA; [10]) [nM]	Effect of Exemplary Compounds on Cell Viability, K562 (K562 cells)
Cc1nc2c(F)c(O)c(-c3ccc4nc(N5CC[C@@H](NC6(CF)CC6)C5)ccc4n3)cc2o1 (single isomer, unassigned) [Compound 372]	< 100	< 100	< 100	< 100	< 100	< 100	< 0.1	< 100	–	–	–	–	–
Cc1c(O)c(-c2nc(C3CCC3)c3cc(N4C[C@H](C)N[C@@H](C)C4)ccc3n2)cc2cn(C)nc12 (single isomer, unassigned) [Compound 794]	–	–	100 to 1000	–	–	> 10000	> 10	–	100 to 1000	100 to 1000	1000 to 10000	> 10000	B (B represents 100-1000 nM)
Cc1cn2nc(-c3ncc4cc(N5C[C@H](C)N[C@@H](C)C5)ccc4n3)cc(C)c2n1 (single isomer, unassigned) [Compound 798]	–	–	1000 to 10000	–	–	> 10000	> 10	–	100 to 1000	1000 to 10000	> 10000	> 10000	C (C represents 1000-9999 nM)
Cc1nc2c(F)c(O)c(-c3ccc4nc(N5CCC(NCC6CC6)C5)ccc4n3)cc2o1 (stereo not drawn) [Cmpd 294]	< 100	< 100	< 100	< 100	< 100	< 100	< 0.1	< 100	–	–	–	–	–
Cc1nc2c(C)c(O)c(-c3ccc4nc(N5CC[C@@H](NC(C)C)C5)ncc4n3)cc2o1 [Cmpd 415]	< 100	< 100	< 100	< 100	< 100	< 100	< 0.1	< 100	–	–	–	–	–
CN(c1ccc2nc(-c3cc4cn(C)nc4cc3O)ccc2n1)C1CC(C)(C)N(C)C(C)(C)C1 [Compound 130]	> 10000	> 10000	> 10000	> 10000	> 10000	> 10000	> 10	100 to 1000	–	–	–	–	–
COc1cc2nc(C3CCNCC3)ccc2nc1-c1cc2c(C)nc(C)cn2n1 [Compound 343, 2-{4,6-dimethylpyrazolo[1,5-a]pyrazin-2-yl}-3-methoxy-6-(piperidin-4-yl)-1,5-naphthyridine]	1000 to 10000	1000 to 10000	1000 to 10000	1000 to 10000	1000 to 10000	1000 to 10000	> 10	< 100	–	–	–	–	–
Cc1c(O)c(-c2nc(C3CCC3)c3cc(N4C[C@@H](C)N[C@@H](C)C4)ccc3n2)cc2cn(C)nc12 [Compound 790, 5-{4-cyclobutyl-6-[(3R,5S)-3,5-dimethylpiperazin-1-yl]quinazolin-2-yl}-2,7-dimethylindazol-6-ol]	–	–	1000 to 10000	–	–	1000 to 10000	> 10	–	1000 to 10000	1000 to 10000	> 10000	1000 to 10000	C (C represents 1000-9999 nM)
C[C@@H]1CN(c2ccc3nc(-c4cc5cn(C)nc5cc4O)nc(C4CCC4)c3c2)C[C@H](C)N1 [Compound 791, 5-{4-cyclobutyl-6-[(3R,5S)-3,5-dimethylpiperazin-1-yl]quinazolin-2-yl}-2-methylindazol-6-ol]	–	–	1000 to 10000	–	–	1000 to 10000	> 10	–	1000 to 10000	1000 to 10000	> 10000	1000 to 10000	B (B represents 100-1000 nM)
Cc1c(O)c(-c2ncc3cc(N4CCNC5(CC5)C4)ccc3n2)cc2cn(C)nc12 [Compound 792, 5-(6-{4,7-diazaspiro[2.5]octan-7-yl}quinazolin-2-yl)-2,7-dimethylindazol-6-ol]	–	–	100 to 1000	–	–	100 to 1000	1 to 10	–	100 to 1000	100 to 1000	1000 to 10000	100 to 1000	B (B represents 100-1000 nM)
Cc1nc(-c2cc3cn(C)nc3c(C)c2O)nc2ccc(N3CCNC4(CC4)C3)cc12 [Compound 793, 5-(6-{4,7-diazaspiro[2.5]octan-7-yl}-4-methylquinazolin-2-yl)-2,7-dimethylindazol-6-ol]	–	–	100 to 1000	–	–	1000 to 10000	> 10	–	100 to 1000	100 to 1000	1000 to 10000	1000 to 10000	B (B represents 100-1000 nM)
Cc1cn2nc(-c3ncc4cc(N5CCNC6(CC6)C5)ccc4n3)cc(C)c2n1 [Compound 795, 2-(2,8-dimethylimidazo[1,2-b]pyridazin-6-yl)-6-(4,7-diazaspiro[2.5]octan-7-yl)quinazoline]	–	–	1000 to 10000	–	–	> 10000	> 10	–	1000 to 10000	1000 to 10000	> 10000	> 10000	C (C represents 1000-9999 nM)
Cn1cc2cc(-c3ncc4cc(N5CCC(N6CCC6)CC5)ccc4n3)c(O)cc2n1 [Compound 801, 5-{6-[4-(azetidin-1-yl)piperidin-1-yl]quinazolin-2-yl}-2-methylindazol-6-ol]	–	–	100 to 1000	–	–	1000 to 10000	1 to 10	–	1000 to 10000	100 to 1000	1000 to 10000	1000 to 10000	B (B represents 100-1000 nM)
C[C@H]1CN(c2ccc3nc(-c4cc(F)c5nn(C)cc5c4)ncc3c2)C[C@H](C)N1 [Compound 802, 6-[(3S,5S)-3,5-dimethylpiperazin-1-yl]-2-(7-fluoro-2-methylindazol-5-yl)quinazoline]	–	–	100 to 1000	–	–	100 to 1000	0.1 to 1	–	100 to 1000	100 to 1000	100 to 1000	100 to 1000	B (B represents 100-1000 nM)
Cc1cn2nc(-c3ccc4cc(N5CCNC6(CC6)C5)cc(F)c4n3)cc(C)c2n1 [Compound 804, 6-{4,7-diazaspiro[2.5]octan-7-yl}-2-{2,8-dimethylimidazo[1,2-b]pyridazin-6-yl}-8-fluoroquinoline]	–	–	100 to 1000	–	–	100 to 1000	0.1 to 1	–	100 to 1000	100 to 1000	100 to 1000	100 to 1000	B (B represents 100-1000 nM)
